In patent US11707462B2, “Checkpoint kinase 1 (CHK1) inhibitors and uses thereof” (Boundless Bio, Inc., priority 2021, dated 2023):

Legend:
[1] = target: T1, Full-length human Chk1 protein (Homo sapiens, UniProt O14757); test: Kinase HTRF biochemical assay (HTRF KinEASE), Chk1 enzyme activity; settings: full-length human Chk1, ATP 1 mM, 60 minutes at room temperature
T1 construct: purchased Carna Biosciences, Inc. 02-117
T1 sequence (O14757 1-476): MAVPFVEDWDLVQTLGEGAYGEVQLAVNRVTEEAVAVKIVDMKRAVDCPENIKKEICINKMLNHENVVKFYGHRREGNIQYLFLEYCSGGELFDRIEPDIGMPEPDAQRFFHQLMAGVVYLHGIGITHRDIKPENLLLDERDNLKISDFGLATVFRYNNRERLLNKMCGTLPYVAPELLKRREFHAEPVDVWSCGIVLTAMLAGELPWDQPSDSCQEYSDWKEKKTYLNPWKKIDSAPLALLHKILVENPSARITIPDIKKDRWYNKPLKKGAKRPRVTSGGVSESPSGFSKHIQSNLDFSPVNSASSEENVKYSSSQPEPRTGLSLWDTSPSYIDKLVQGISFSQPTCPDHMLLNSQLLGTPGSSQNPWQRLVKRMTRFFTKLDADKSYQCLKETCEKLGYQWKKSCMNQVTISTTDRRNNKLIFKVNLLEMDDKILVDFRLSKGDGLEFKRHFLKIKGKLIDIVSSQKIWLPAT
Method in brief: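 Full-length human Chk1 (0.012 ng/μL) in buffer with 5 mM MgCl2 and 1 mM DTT, preincubated with compound 10 min at room temperature; reaction with 120 nM biotinylated STK substrate 1 and 1 mM ATP for 60 min at room temperature. HTRF detection via cryptate antibody/streptavidin-XL665; IC50 from 10-point duplicate curves.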

p-CHK1 (Ser345) = test: AlphaLISA SureFire Ultra p-CHK1 (Ser345) cellular assay in HT29 cells; assay type: cell-based; settings: Homo sapiens, HT-29, 16 h at 37° C.
Method in brief: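 HT29 cells treated with compounds over a 10-point, 3-fold dilution series for 16 h at 37° C., then lysed; p-CHK1 (Ser345) in lysates measured by AlphaLISA SureFire Ultra (acceptor and donor steps 1 h each at room temperature). IC50 from dose-response curve fits.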

| SMILES | IC50 [1] [nM] | IC50 (p-CHK1 (Ser345)) [nM] |
| --- | --- | --- |
| N#Cc1cnc(Nc2cc(-c3ncccc3O[C@@H]3CC[C@@H](N)C3)[nH]n2)cn1 [Example 1-58, 5-((5-(3-(((1R,3R)-3-aminocyclopentyl)oxy)pyridin-2-yl)-1H-pyrazol-3-yl)amino)pyrazine-2-carbonitrile] | ≤ 10 | ≤ 50 |
| CN[C@H]1C[C@H](Oc2ccc(C)nc2-c2cc(Nc3cnc(C#N)cn3)n[nH]2)C1 [Example 1-61, 5-((5-(6-methyl-3-((1r,3r)-3-(methylamino)cyclobutoxy)pyridin-2-yl)-1H-pyrazol-3-yl)amino)pyrazine-2-carbonitrile] | 10 to 100 | 100 to 500 |
| N#Cc1cnc(Nc2cc(-c3cccc(F)c3O[C@@H]3CC[C@H](N)C3)[nH]n2)cn1 [Example 3-13, 5-((5-(2-(((1R,3S)-3-aminocyclopentyl)oxy)-3-fluorophenyl)-1H-pyrazol-3-yl)amino)pyrazine-2-carbonitrile] | 100 to 500 | > 1000 |
| COc1cc(Cl)cc(O[C@H]2CC[C@H](N)CC2)c1-c1cc(Nc2cnc(C#N)cn2)n[nH]1 [Example 1-21, 5-((5-(2-(((1r,4r)-4-aminocyclohexyl)oxy)-4-chloro-6-methoxyphenyl)-1H-pyrazol-3-yl)amino)pyrazine-2-carbonitrile] | ≤ 10 | 50 to 100 |
| CC(C)c1ccc(O[C@@H]2CC[C@H](N)C2)c(-c2cc(Nc3cnc(C#N)cn3)n[nH]2)n1 [Example 3-46, 5-((5-(3-(((1R,3S)-3-aminocyclopentyl)oxy)-6-isopropylpyridin-2-yl)-1H-pyrazol-3-yl)amino)pyrazine-2-carbonitrile] | ≤ 10 | 50 to 100 |
| COc1cccc(O[C@H]2CC[C@@H](N)CC2)c1-c1cc(Nc2cnc(C#N)cn2)n[nH]1 [Example 1-11, 5-((5-(2-(((1s,4s)-4-aminocyclohexyl)oxy)-6-methoxyphenyl)-1H-pyrazol-3-yl)amino)pyrazine-2-carbonitrile] | 10 to 100 | 100 to 500 |
| COc1cccc(O[C@H]2CCCC[C@H](N)C2)c1-c1cc(Nc2cnc(C#N)cn2)n[nH]1 [Example 3-7, 5-((5-(2-(((1S,3S)-3-aminocycloheptyl)oxy)-6-methoxyphenyl)-1H-pyrazol-3-yl)amino)pyrazine-2-carbonitrile] | ≤ 10 | ≤ 50 |
| COc1cccc(O[C@@H]2CC[C@H](N(C)C)C2)c1-c1cc(Nc2cnc(C#N)cn2)n[nH]1 [Example 1-49, 5-((5-(2-(((1R,3S)-3-(dimethylamino)cyclopentyl)oxy)-6-methoxyphenyl)-1H-pyrazol-3-yl)amino)pyrazine-2-carbonitrile] | ≤ 10 | ≤ 50 |
| CCOc1cccc(O[C@@H]2CC[C@H](N)C2)c1-c1cc(Nc2cnc(C#N)cn2)n[nH]1 [Example 1-23, 5-((5-(2-(((1R,3S)-3-aminocyclopentyl)oxy)-6-ethoxyphenyl)-1H-pyrazol-3-yl)amino)pyazine-2-carbonitrile] | 10 to 100 | 100 to 500 |
| Cc1cc(O[C@@H]2CC[C@H](N)C2)c(-c2cc(Nc3cnc(C#N)cn3)n[nH]2)nc1C [Example 3-48, 5-((5-(3-(((1R,3S)-3-aminocyclopentyl)oxy)-5,6-dimethylpyridin-2-yl)-1H-pyrazol-3-yl)amino)pyrazine-2-carbonitrile] | ≤ 10 | ≤ 50 |
| CCOc1cccc(O[C@H]2C[C@H](N)C2)c1-c1cc(Nc2cnc(C#N)cn2)n[nH]1 [Example 1-12, 5-((5-(2-((1r,3r)-3-aminocyclobutoxy)-6-ethoxyphenyl)-1H-pyrazol-3-yl)amino)pyrazine-2-carbonitrile] | ≤ 10 | 100 to 500 |
| N#Cc1cnc(Nc2cc(-c3c(O[C@@H]4CC[C@@H](N)C4)ccc(Cl)c3F)[nH]n2)cn1 [Example 3-29, 5-((5-(6-(((1R,3R)-3-aminocyclopentyl)oxy)-3-chloro-2-fluorophenyl)-1H-pyrazol-3-yl)amino)pyrazine-2-carbonitrile] | ≤ 10 | 100 to 500 |
| COc1cc(F)cc(O[C@H]2CC[C@H](N)CC2)c1-c1cc(Nc2cnc(C#N)cn2)n[nH]1 [Example 2-4, 5-((5-(2-(((lr,4r)-4-aminocyclohexyl)oxy)-4-fluoro-6-methoxyphenyl)-1 H-pyrazol-3-yl)amino)pyrazine-2-carbonitrile] | ≤ 10 | ≤ 50 |
| CN[C@@H]1CC[C@@H](Oc2cc(F)c(C)cc2-c2cc(Nc3cnc(C#N)cn3)n[nH]2)C1 [Example 3-21, 5-((5-(4-fluoro-5-methyl-2-(((1R,3R)-3-(methylamino)cyclopentyl)oxy)phenyl)-1H-pyrazol-3-yl)amino)pyrazine-2-carbonitrile] | ≤ 10 | 50 to 100 |
| N#Cc1cnc(Nc2cc(-c3ncccc3O[C@@H]3CC[C@@H](N)C3)[nH]n2)cn1 (stereo in doubt) [Example 1-59, 5-((5-(3-(((1R,3R)-3-aminocyclopentyl)oxy)pyridin-2-yl)-1H-pyrazol-3-yl)amino)pyrazine-2-carbonitrile] | 100 to 500 | > 1000 |
| COc1cc(F)cc(O[C@@H]2CC[C@H](N)C2)c1-c1cc(Nc2cnc(C#N)cn2)n[nH]1 [Example 1-28, 5-((5-(2-(((1R,3S)-3-aminocyclopentyl)oxy)-4-fluoro-6-methoxyphenyl)-1H-pyrazol-3-yl)amino)pyrazine-2-carbonitrile] | ≤ 10 | ≤ 50 |
| COc1cccc(OC2CCC(N)C2C)c1-c1cc(Nc2cnc(C#N)cn2)n[nH]1 (stereo not drawn) [Example 1-47, 5-((5-(2-((3-amino-2-methylcyclopentyl)oxy)-6-methoxyphenyl)-1H-pyrazol-3-yl)amino)pyrazine-2-carbonitrile] | ≤ 10 | ≤ 50 |
| CN[C@@H]1CC[C@@H](Oc2cc(Cl)cc(F)c2-c2cc(Nc3cnc(C#N)cn3)n[nH]2)C1 [Example 3-25, 5-((5-(4-chloro-2-fluoro-6-(((1R,3R)-3-(methylamino)cyclopentyl)oxy)phenyl)-1H-pyrazol-3-yl)amino)pyrazine-2-carbonitrile] | 10 to 100 | 100 to 500 |
| COc1cccc(O[C@H]2C[C@@H](N)C2)c1-c1cc(Nc2cnc(C#N)cn2)n[nH]1 [Example 1-4, 5-((5-(2-((1s,3s)-3-aminocyclobutoxy)-6-methoxyphenyl)-1H-pyrazol-3-yl)amino)pyrazine-2-carbonitrile] | 100 to 500 | > 1000 |
| Cc1cc(-c2cc(Nc3cnc(C#N)cn3)n[nH]2)c(O[C@@H]2CC[C@@H](N)C2)cc1F [Example 3-27, 5-((5-(2-(((1R,3R)-3-aminocyclopentyl)oxy)-4-fluoro-5-methylphenyl)-1H-pyrazol-3-yl)amino)pyrazine-2-carbonitrile] | ≤ 10 | 50 to 100 |
| CCOc1cccc(O[C@H]2CC[C@H](N)CC2)c1-c1cc(Nc2cnc(C#N)cn2)n[nH]1 [Example 1-17, 5-((5-(2-(((1r,4r)-4-aminocyclohexyl)oxy)-6-ethoxyphenyl)-1H-pyrazol-3-yl)amino)pyrazine-2-carbonitrile] | 10 to 100 | 500 to 1000 |
| CN[C@@H]1CC[C@@H](Oc2ccccc2-c2cc(Nc3cnc(C#N)cn3)n[nH]2)C1 [Example 1-42, 5-((5-(2-(((1R,3R)-3-(methylamino)cyclopentyl)oxy)phenyl)-1H-pyrazol-3-yl)amino)pyrazine-2-carbonitrile] | 10 to 100 | 50 to 100 |
| CCCc1ccc(O[C@@H]2CC[C@H](N)C2)c(-c2cc(Nc3cnc(C#N)cn3)n[nH]2)n1 [Example 3-47, 5-((5-(3-(((1R,3S)-3-aminocyclopentyl)oxy)-6-propylpyridin-2-yl)-1H-pyrazol-3-yl)amino)pyrazine-2-carbonitrile] | ≤ 10 | 50 to 100 |
| COc1cccc(O[C@@H]2CCCC[C@H](N)C2)c1-c1cc(Nc2cnc(C#N)cn2)n[nH]1 [Example 3-8, 5-((5-(2-(((1R,3S)-3-aminocycloheptyl)oxy)-6-methoxyphenyl)-1H-pyrazol-3-yl)amino)pyrazine-2-carbonitrile] | ≤ 10 | ≤ 50 |
| COc1cccc(O[C@@H]2CC[C@@H](N)C2)c1-c1cc(Nc2cnc(C#N)cn2)n[nH]1 [Example 1-8, 5-((5-(2-(((1R,3R)-3-aminocyclopentyl)oxy)-6-methoxyphenyl)-lH-pyrazol-3-yl)amino)pyrazine-2-carbonitrile] | ≤ 10 | ≤ 50 |
| COc1ccc(C)c(O[C@@H]2CC[C@H](N)C2)c1-c1cc(Nc2cnc(C#N)cn2)n[nH]1 [Example 4-3, 5-((5-(2-(((1R,3S)-3-aminocyclopentyl)oxy)-6-methoxy-3-methylphenyl)-1 H-pyrazol-3-yl)amino)pyrazine-2-carbonitrile] | 100 to 500 | > 1000 |
| N#Cc1cnc(Nc2cc(-c3c(F)cccc3O[C@@H]3CC[C@@H](N)C3)[nH]n2)cn1 [Example 1-44, 5-((5-(2-(((1R,3R)-3-aminocyclopentyl)oxy)-6-fluorophenyl)-1H-pyrazol-3-yl)amino)pyrazine-2-carbonitrile] | ≤ 10 | ≤ 50 |
